Paper PMC10361207, “Cannabinoid and Opioid Receptor Affinity and Modulation of Cancer-Related Signaling Pathways of Machaeriols and Machaeridiols from Machaerium Pers” (Molecules, 2023)
pIC50: −log10 of the molar value. ≈ marks a conversion by molar mass, not a printed value. Read-outs that look alike come from different tables or passages of the source.

How the values were obtained:
[1] = Cytotoxicity, Neutral Red, SK-MEL; type: cell-based; settings: human, SK-MEL malignant melanoma cells, Na = not active up to 50 µg/mL
Procedure: (§1) In vitro cytotoxic activity was determined against five human cancer cell lines—malignant melanoma (SK-MEL), epidermal carcinoma oral (KB), ductal carcinoma breast (BT-549), ovary carcinoma (SKOV-3) and cervical (HeLa) cancer cells—and two non-cancerous kidney cell lines (LLC-PK1 and Vero). All cell lines were obtained from the American Type Culture Collection (ATCC, Rockville, MD, USA). Each assay was performed in 96-well tissue culture-treated microplates. The cells were seeded at a density of 25,000 cells/well and incubated for 24 h. Samples at different concentrations were added, and the cells were incubated again for 48 h. At the end of the incubation, the cell viability was determined using Neutral Red dye according to a modification of the procedure used by Borenfreund et al.. IC50 values were determined from dose–response curves of the percent growth inhibition against test concentrations. Doxorubicin was used as a positive control, while DMSO was used as the negative (vehicle) control.

[2] = Cytotoxicity, Neutral Red, KB; type: cell-based; settings: human, KB epidermal carcinoma (oral) cells, Na = not active up to 50 µg/mL
Procedure: as §1

[3] = Cytotoxicity, Neutral Red, HeLa; type: cell-based; settings: human, HeLa cervical cancer cells, Na = not active up to 50 µg/mL
Procedure: as §1

[4] = Cytotoxicity, Neutral Red, LLC-PK1; type: cell-based; settings: pig, LLC-PK1 kidney epithelial cells, Na = not active up to 50 µg/mL
Procedure: as §1

[5] = Cytotoxicity, Neutral Red, Vero; type: cell-based; settings: monkey, Vero kidney fibroblasts, Na = not active up to 50 µg/mL
Procedure: as §1

[6] = Cytotoxicity, Neutral Red, BT-549; type: cell-based; settings: human, BT-549 breast ductal carcinoma cells, Na = not active up to 50 µg/mL
Procedure: as §1

[7] = Cytotoxicity, Neutral Red, SK-OV-3; type: cell-based; settings: human, SK-OV-3 ovary carcinoma cells, Na = not active up to 50 µg/mL
Procedure: as §1

ETS [8] = assay: Luciferase reporter assay, ETS, HeLa; type: cell-based, human; settings: Homo sapiens; HeLa cells; inducer PMA; dash: not inhibited by more than 40% at 50 µmol/L
Procedure: (§2) Hela cells (or T98G cells) from ATCC were plated in white opaque 384-well plates at a density of 4300 cells/well in 30 µL of growth medium (DMEM with 10% FBS and 1% Pen/Strep). The next day, the medium was aspirated and replaced with DMEM containing 1% FBS. The cells were transfected with respective plasmids using X-tremeGENE HP DNA transfection reagent (Roche). After 24 h of transfection, the test agents were added to the transfected cells, followed 30 min later by an inducing agent: interleukin 6 (IL-6) for Stat3, TGF-β for Smad, m-wnt3a for Wnt and PMA for AP-1, NF-κB, E2F, Myc, ETS, Notch and Hedgehog. No inducer was added for FoXO and pTK. After 4 h or 6 h of induction, the cells were lysed via the addition of the One-Glo luciferase assay system (Promega; Madison, WI). The light output was detected in a GloMax®-Multi+ Detection System with Instinct® Software (Promega E 8051). This luciferase assay determines if the test agent is able to inhibit the activation of cancer-related signaling pathways. In the case of FoxO, the enhanced luciferase activity via the test agent was assessed.

Hedgehog [9] = assay: Luciferase reporter assay, Hedgehog, HeLa; type: cell-based, human; settings: Homo sapiens; HeLa cells; inducer PMA; dash: not inhibited by more than 40% at 50 µmol/L
Procedure: as §2

[10] = tested on: panel of transcription factors (cancer-related signaling pathways); assay: Luciferase reporter panel, summary over pathways, HeLa; type: cell-based; settings: Homo sapiens; HeLa cells; read-out: IC50, span over signaling pathways
Procedure: as §2

Wnt [11] = assay: Luciferase reporter assay, Wnt, HeLa; type: cell-based; settings: Homo sapiens; HeLa cells; inducer m-wnt3a; dash: not inhibited by more than 40% at 50 µmol/L
Procedure: as §2

FoxO = assay: Luciferase reporter assay, FoxO, HeLa; type: cell-based; settings: Homo sapiens; HeLa cells; no inducer; dash: no activity detected; read-out: IC50, FoxO (None)
Procedure: as §2

Smad2/3 [12] = assay: Luciferase reporter assay, Smad2/3, HeLa; type: cell-based, human; settings: Homo sapiens; HeLa cells; inducer TGF-beta; dash: not inhibited by more than 40% at 50 µmol/L
Procedure: as §2

Stat3 [13] = assay: Luciferase reporter assay, Stat3, HeLa; type: cell-based, human; settings: Homo sapiens; HeLa cells; inducer IL6; dash: not inhibited by more than 40% at 50 µmol/L
Procedure: as §2

Myc [14] = assay: Luciferase reporter assay, Myc, HeLa; type: cell-based; settings: Homo sapiens; HeLa cells; inducer PMA; dash: not inhibited by more than 40% at 50 µmol/L
Procedure: as §2

Notch [15] = assay: Luciferase reporter assay, Notch, HeLa; type: cell-based; settings: Homo sapiens; HeLa cells; inducer PMA; dash: not inhibited by more than 40% at 50 µmol/L
Procedure: as §2

E2F [16] = assay: Luciferase reporter assay, E2F, HeLa; type: cell-based, human
Procedure: as §2

NF-κB [17] = assay: Luciferase reporter assay, NF-κB, HeLa; type: cell-based; settings: Homo sapiens; HeLa cells; inducer PMA; dash: not inhibited by more than 40% at 50 µmol/L
Procedure: as §2

AP-1 [18] = assay: Luciferase reporter assay, AP-1, HeLa; type: cell-based, human
Procedure: as §2

Stat3 [19] = tested on: Stat3; design: method as in PMID 36235141; settings: T98G glioblastoma multiforme cells; inducer IL6; cited from earlier work
AP-1 [20] = tested on: AP-1; design: method as in PMID 36235141; settings: T98G glioblastoma multiforme cells; inducer PMA; cited from earlier work
Notch [21] = tested on: Notch; design: method as in PMID 36235141; settings: T98G glioblastoma multiforme cells; inducer PMA; cited from earlier work
Smad2/3 [22] = tested on: Smad2/3; design: method as in PMID 36235141; settings: T98G glioblastoma multiforme cells; inducer TGF-beta; cited from earlier work
Wnt [23] = tested on: Wnt; design: method as in PMID 36235141; settings: T98G glioblastoma multiforme cells; inducer m-wnt3a; cited from earlier work
NF-κB [24] = tested on: NF-κB; design: method as in PMID 36235141; settings: T98G glioblastoma multiforme cells; inducer PMA; cited from earlier work
E2F [25] = tested on: E2F; design: method as in PMID 36235141; settings: T98G glioblastoma multiforme cells; inducer PMA; cited from earlier work
Myc [26] = tested on: Myc; design: method as in PMID 36235141; settings: T98G glioblastoma multiforme cells; inducer PMA; cited from earlier work
Hedgehog [27] = tested on: Hedgehog; design: method as in PMID 36235141; settings: T98G glioblastoma multiforme cells; inducer PMA; cited from earlier work
ETS [28] = tested on: ETS; design: method as in PMID 36235141; settings: T98G glioblastoma multiforme cells; inducer PMA; cited from earlier work
[29] = HeLa cells, inducer PMA, dash: not inhibited by more than 40% at 50 µmol/L

COc1cccc2c1C(=O)c1c(O)c3c(c(O)c1C2=O)C[C@@](O)(C(=O)CO)C[C@@H]3O[C@H]1C[C@H](N)[C@H](O)[C@H](C)O1 [Doxorubicin, reference compound]
IC50 at 48 h [1]: 2.2 µg/mL (≈ 4.05 µM)
IC50 at 48 h [2]: 2.4 µg/mL (≈ 4.42 µM)
IC50 at 48 h [3]: 4.3 µg/mL (≈ 7.91 µM)
IC50 at 48 h [4]: 1.1 µg/mL (≈ 2.02 µM)
IC50 at 48 h [5]: > 5 µg/mL
IC50 at 48 h [6]: 2.4 µg/mL (≈ 4.42 µM)
IC50 at 48 h [7]: 2 µg/mL (≈ 3.68 µM)

C=C(C)[C@@H]1CCC(C)=C[C@H]1c1c(O)cc(CCCCC)cc1O [compound 9, cannabidiol, reference compound]
pIC50 (ETS [8]): 5.26
pIC50 (Hedgehog [9]): 5.21
pIC50 [10]: 5.21 to 5.52
pIC50 (Wnt [11]): 5.24
pIC50 (FoxO): < 4.30
pIC50 (Smad2/3 [12]): 5.39
pIC50 (Stat3 [13]): 5.23
pIC50 (Myc [14]): 5.42
pIC50 (Notch [15]): 5.32
IC50, E2F (PMA) (E2F [16]; [29]): inactive
pIC50 (E2F [16]; Homo sapiens, HeLa, read-out: IC50, E2F (PMA)): < 4.30
pIC50 (NF-κB [17]): 5.52
IC50, Ap-1 (PMA) (AP-1 [18]; [29]): inactive
pIC50 (AP-1 [18]; Homo sapiens, read-out: IC50, Ap-1 (PMA)): < 4.30

C=C(C)[C@H]1CCC(C)=C[C@@H]1c1c(O)cc(O)cc1/C=C/c1ccccc1 [compound 12]
pIC50 (Stat3 [19]): 5.31
pIC50 (AP-1 [20]): 4.99
pIC50 (Notch [21]): > 5.30
pIC50 (Smad2/3 [22]): 5.46
pIC50 (Wnt [23]): 4.92
pIC50 (NF-κB [24]): 5.11
pIC50 (E2F [25]): 5.35
pIC50 (Myc [26]): 5.24
pIC50 (Hedgehog [27]): 5.15
pIC50 (ETS [28]): 5.14

CC(C)=CCC/C(C)=C/Cc1c(O)cc(O)cc1/C=C/c1ccccc1 [compound 13]
pIC50 (Stat3 [19]): 5.37
pIC50 (AP-1 [20]): 5.36
pIC50 (Notch [21]): 5.68
pIC50 (Smad2/3 [22]): 5.66
pIC50 (Wnt [23]): 5.04
pIC50 (NF-κB [24]): 5.32
pIC50 (E2F [25]): 5.36
pIC50 (Myc [26]): 5.72
pIC50 (Hedgehog [27]): 5.08
pIC50 (ETS [28]): 5.33
